Results reported in PubChem BioAssay AID1963973 (Molecular Pharmacology Branch, DTP, NCI, 2024).

Tested on: 883617-216-R-J1-PDC tumor spheroids, viability
Assay: Anticancer human tumor 883617-216-R-J1-PDC patient-derived bladder carcinoma cell line growth inhibition [PI3K]
Conditions: spheroids with HUVEC and MSC; for IC50: curve of first compound; for viability, T/C: stronger effect = lower value
In short: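 Combination activity was assessed by viability in multicellular tumor spheroids carrying HUVEC and MSC components. Agents were tested with PI3K inhibitors from a Cmax-based top dose (or 10 microM) downward in half-log increments.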
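Note: spheroids exposed to agents for 7 days before the viability read.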

CC(C)n1nc(-c2ccc3oc(N)nc3c2)c2c(N)ncnc21 + CC(Nc1ccc2c(c1)OCCn1cc(N3C(=O)OCC3C(F)F)nc1-2)C(N)=O
IC50 (second compound 0.00316 µM): 30 nM | IC50 (second compound 0.01 µM): 24.6 nM | IC50 (second compound 0.0316 µM): 7.16 nM | IC50 (second compound 0.1 µM): 0.331 nM | IC50 (second compound 0.316 µM): < 0.316 nM | IC50 (second compound 1 µM): < 0.316 nM | viability, T/C (second compound 0.00316 µM, first compound 0.000316 µM): 96.5% | viability, T/C (second compound 0.00316 µM, first compound 0.001 µM): 88.1% | viability, T/C (second compound 0.00316 µM, first compound 0.00316 µM): 75.4% | viability, T/C (second compound 0.00316 µM, first compound 0.01 µM): 72.1% | viability, T/C (second compound 0.00316 µM, first compound 0.0316 µM): 50.5% | viability, T/C (second compound 0.00316 µM, first compound 0.1 µM): 16.6% | viability, T/C (second compound 0.01 µM, first compound 0.000316 µM): 85.5% | viability, T/C (second compound 0.01 µM, first compound 0.001 µM): 76.4% | viability, T/C (second compound 0.01 µM, first compound 0.00316 µM): 75% | viability, T/C (second compound 0.01 µM, first compound 0.01 µM): 69.8% | viability, T/C (second compound 0.01 µM, first compound 0.0316 µM): 44.2% | viability, T/C (second compound 0.01 µM, first compound 0.1 µM): 19.6% | viability, T/C (second compound 0.0316 µM, first compound 0.000316 µM): 61.9% | viability, T/C (second compound 0.0316 µM, first compound 0.001 µM): 60.8% | viability, T/C (second compound 0.0316 µM, first compound 0.00316 µM): 54.4% | viability, T/C (second compound 0.0316 µM, first compound 0.01 µM): 49% | viability, T/C (second compound 0.0316 µM, first compound 0.0316 µM): 31.4% | viability, T/C (second compound 0.0316 µM, first compound 0.1 µM): 16.6% | viability, T/C (second compound 0.1 µM, first compound 0.000316 µM): 52.2% | viability, T/C (second compound 0.1 µM, first compound 0.001 µM): 41.2% | viability, T/C (second compound 0.1 µM, first compound 0.00316 µM): 37.5% | viability, T/C (second compound 0.1 µM, first compound 0.01 µM): 32% | viability, T/C (second compound 0.1 µM, first compound 0.0316 µM): 22.1% | viability, T/C (second compound 0.1 µM, first compound 0.1 µM): 11.5% | viability, T/C (second compound 0.316 µM, first compound 0.000316 µM): 31.9% | viability, T/C (second compound 0.316 µM, first compound 0.001 µM): 20.6% | viability, T/C (second compound 0.316 µM, first compound 0.00316 µM): 24.8% | viability, T/C (second compound 0.316 µM, first compound 0.01 µM): 15.8% | viability, T/C (second compound 0.316 µM, first compound 0.0316 µM): 14.4% | viability, T/C (second compound 0.316 µM, first compound 0.1 µM): 10.2% | viability, T/C (second compound 1 µM, first compound 0.000316 µM): 17.4% | viability, T/C (second compound 1 µM, first compound 0.001 µM): 17.7% | viability, T/C (second compound 1 µM, first compound 0.00316 µM): 13.9% | viability, T/C (second compound 1 µM, first compound 0.01 µM): 11.2% | viability, T/C (second compound 1 µM, first compound 0.0316 µM): 11.5% | viability, T/C (second compound 1 µM, first compound 0.1 µM): 5.87%
